{
  "source": "patent US12171554B2",
  "about": "“Marker monitoring via a medical device” (Medtronic, Inc., priority 2017, dated 2024)",
  "assay": "Fluorophore detection in interstitial fluid (ISF) of rats after IV or PO dosing, subcutaneous optical PMMA fiber and reader device",
  "conditions": "rat, in vivo",
  "source_text": "Study Protocol: The purpose of the study was to investigate in an acute or semi-chronic rat trial set-up if fluorophores are detectable in the ISF (InterStitial Fluid) when injected IV or given to the rat Per Oral (PO). Four rat subjects (Rat 001, Rat 002, Rat 003, and Rat 004) were included in the study. The procedure of the study was as follows: Rat subjects were Sprague Dawley rats, male, Diet Induced Obese (DIO). For each rat, the rat was anaesthesized, shaved and cleaned on the back for PMMA optical fiber insertion. A tail venous catheter was placed and two 250 um optical PMMA fibers were placed in the subcutaneous fat tissue of the DIO rat. The base and tape of the sensor unit was sutured to the skin.\nFor Rats 001 and 002, a reader device suitable for indocyanine green dye detection was mounted. [ . . . ] Rat 002 died during oral dosing while under anesthesia due to lack of swallowing reflex.\nFor Rats 003 and 004 reader devices suitable for Alexa Fluor 594™ (AF594) detection were mounted. Recording began using RF data transfer (GST protocol, MDT Diabetes). A first IV injection of 0.01 mg AF594 was injected (1 mL into tail vein). Rise and decay of fluorescence was observed before a second injection of 1 mL of 0.01 mg AF594 into the tail vein. Anesthesia then was removed and the rat was placed into a cage. […]",
  "data": [
    {"smiles": "CC1(C)C(/C=C/C=C/C=C/C=C2\\N(CCCCS(=O)(=O)O)c3ccc4ccccc4c3C2(C)C)=[N+](CCCCS(=O)(=O)[O-])c2ccc3ccccc3c21", "note": "[Indo Cyanine Green]", "values": [
      {"measurement": "clearance from the ISF after IV dosing", "result": "relatively fast clearance"},
      {"measurement": "signal in ISF after IV dosing", "result": "distinct signals"}
    ]}
  ]
}
